Patent publication US20070232563A1, “Method for Enhancing Biological Activity and/or Expanding Suitable Region for Biological Activity of Living Body Contacting with Aqueous Environment” (Kabushiki Kaisha Hayashibara Seibutsu Kagaku Kenky, priority 2004, published 2007)

What was measured:
[1] = system: colbicula (Corbicula leana); assay: Biological activity of corbicula (aqueduct extension score) in aqueous mineral solutions; format: in vivo; settings: saccharide 1 w/v %, total of 18 shellfishes, 16 h
Source text: Influence of various saccharides was judged by observing the degree of extending aqueduct of the shellfish; 3 points: its aqueduct is well extended; 2 points: its aqueduct is slightly extended; 1 point: its aqueduct is not extended but its shells are opened; 0 point: its shells are closed. The effect on biological activity was judged by the total point of 18 shellfishes.
Suitable region for biological activity was examined by using colbicula (Corbicula leana) as fishes and shellfishes living in fresh water in the case of enhancing their biological activity by using aqueous mineral solutions containing various saccharides. In detail, solar salt (85% by weight of sodium chloride and 15% by weight of magnesium) as minerals was dissolved in tap water kept in a container for two days to give final concentrations described in the following Table 4. Saccharide (any one of D-glucose, maltose, sucrose, maltitol, α,α-trehalose, α-maltosyl α,α-trehalose, maltotetraose and cyclic tetrasaccharide) was dissolved in the resulting salt solutions to give a final concentration of 1 w/v %, on a dry solid basis. The resulting each solution was placed in a plastic bat. Eighteen pre-selected active shellfishes in one group were placed in the bat. The bat was shaded with a black cloth and left at ambient temperature (18° C.) for 16 hours. As a control, an aqueous solar salt solution without saccharides was prepared. Biological activity of the shellfish was judged by measuring extend their aqueducts macroscopically in the same manner as in Experiment 1.
Effective concentration range of α,α-trehalose or α-maltosyl α,α-trehalose on enhancing biological activity and/or influencing on suitable region for biological activity of colbicula (Corbicula leana) was determined according to the method of Experiment 4 by examining biological activity of the shellfish in the aqueous mineral solution with a mineral concentration of 1.5 w/v %, where α,α-trehalose or α-maltosyl α,α-trehalose was effective in Experiment 4, containing α,α-trehalose or α-maltosyl α,α-trehalose at a concentration of 0.01, 0.1, 1, 2, 3 or 4 w/v %, on a dry solid basis. As a control, a solution containing 1.5 w/v % of mineral without such saccharides was prepared and treated in the same manner.

[2] = system: short-necked clam (Ruditapes philippinarum); assay: Biological activity of short-necked clam (aqueduct extension score) in aqueous mineral solutions; format: in vivo; settings: saccharide 1 w/v %, total of 18 clams, 16 h
Protocol: Suitable region for biological activity of short-necked clam (Ruditapes philippinarum), as a fish or shellfish living in seawater, was examined by adding various saccharides to mineral aqueous solutions with various concentrations. In detail, solar salt (85% by weight of sodium chloride and 15% by weight of magnesium) as minerals was dissolved in running water kept in a container for two days to give final concentrations described in the following Table 1. Saccharide (any one of D-glucose, maltose, sucrose, maltitol, α,α-trehalose, α-maltosyl α,α-trehalose, maltotetraose and cyclic tetrasaccharide) was dissolved in the resulting salt solutions to give a final concentration of 1 w/v %, on a dry solid basis. Each of the resulting solutions was placed in a plastic bat. Eighteen pre-selected active short-necked clam in one group were placed in the bat. The bat was shaded with a black cloth and left at ambient temperature (18° C.) for 16 hours. As a control, an aqueous solar salt solution without any saccharides was prepared. Saccharides except for α-maltosyl α,α-trehalose as a saccharide derivatives thereof and cyclic tetrasaccharide were chosen from commercialized products. α-Maltosyl α,α-trehalose as saccharide derivatives of α,α-trehalose in a powder form with a purity of 98 w/w % or over was prepared by the method disclosed in Experiment 4 in Japanese Patent Kokai No. 143876/1995. Cyclic tetrasaccharide in a crystalline form with a purity of 98 w/w % or over, on a dry solid basis, was prepared by the method disclosed in Example A-7 in International Patent Publication No. WO02/10361. Influence of various saccharides was judged by observing the degree of extending aqueduct of the shellfish; 3 points: its aqueduct is well extended; 2 points: its aqueduct is slightly extended; 1 point: its aqueduct is not extended but its shells are opened; 0 point: its shells are closed. The effect on biological activity was judged by the total point of 18 shellfishes. To investigate the effective concentration range of α,α-trehalose or α-maltosyl α,α-trehalose against a mineral solution with a concentration of 1.5 w/v % or 4.5 w/v %, where α,α-trehalose or α-maltosyl α,α-trehalose was remarkably effective in Experiment 1, the following experiment using α,α-trehalose or α-maltosyl α,α-trehalose at a concentration of 0.01, 0.1, 1, 2, 3 or 4 w/v % was carried out according to the method in Experiment 1. As a control, mineral aqueous solutions with a concentration of 1.5 w/v % or 4.5 w/v % without any of the saccharides were prepared and carried out in the same manner.

Compound | Judgment score of biological activity ([1]; mineral concentration 0) | Judgment score of biological activity ([1]; mineral concentration 0.5) | Judgment score of biological activity ([1]; mineral concentration 1.0) | Judgment score of biological activity ([1]; mineral concentration 1.5) | Judgment score of biological activity ([1]; mineral concentration 2.0) | Judgment score of biological activity ([1]; mineral concentration 2.5) | Judgment score of biological activity ([1]; mineral concentration 3.0) | Judgment score for biological activity ([2]; mineral 0 w/v %) | Judgment score for biological activity ([2]; mineral 0.5 w/v %) | Judgment score for biological activity ([2]; mineral 1.0 w/v %) | Judgment score for biological activity ([2]; mineral 1.5 w/v %) | Judgment score for biological activity ([2]; mineral 2.0 w/v %) | Judgment score for biological activity ([2]; mineral 2.5 w/v %) | Judgment score for biological activity ([2]; mineral 3.0 w/v %) | Judgment score for biological activity ([2]; mineral 3.5 w/v %) | Judgment score for biological activity ([2]; mineral 4.0 w/v %) | Judgment score for biological activity ([2]; mineral 4.5 w/v %) | Judgment score for biological activity ([2]; mineral 5.0 w/v %) | Judgment score for biological activity ([2]; mineral 5.5 w/v %) | Judgment score for biological activity ([2]; mineral 6.0 w/v %)
O=C[C@H](O)[C@@H](O)[C@H](O)[C@H](O)CO [D-Glucose, D-glucose] | 50 | 51 | 25 | 18 | 15 | 5 | 0 | 7 | 12 | 12 | 14 | 30 | 41 | 48 | 44 | 31 | 24 | 11 | 4 | 0
OC[C@H]1O[C@@](CO)(O[C@H]2O[C@H](CO)[C@@H](O)[C@H](O)[C@H]2O)[C@@H](O)[C@@H]1O [Sucrose, sucrose] | 51 | 46 | 21 | 11 | 8 | 7 | 0 | 7 | 11 | 14 | 16 | 31 | 44 | 48 | 45 | 30 | 21 | 9 | 0 | 0
OC[C@@H](O)[C@@H](O[C@H]1O[C@H](CO)[C@@H](O)[C@H](O)[C@H]1O)[C@H](O)[C@@H](O)CO [Maltitol, maltitol] | 50 | 47 | 25 | 18 | 13 | 2 | 0 | 8 | 11 | 15 | 20 | 30 | 41 | 48 | 47 | 32 | 16 | 12 | 5 | 0
OC[C@H]1O[C@H](O[C@H]2[C@H](O)[C@@H](O)[C@@H](O[C@H]3[C@H](O)[C@@H](O)[C@@H](O[C@H]4[C@H](O)[C@@H](O)C(O)O[C@@H]4CO)O[C@@H]3CO)O[C@@H]2CO)[C@H](O)[C@@H](O)[C@@H]1O (stereo partly drawn) [Maltotetraose, maltotetraose] | 51 | 49 | 19 | 14 | 11 | 9 | 0 | 7 | 11 | 12 | 16 | 28 | 45 | 46 | 42 | 31 | 26 | 14 | 5 | 0
OC[C@H]1O[C@H](O[C@H]2[C@H](O)[C@@H](O)C(O)O[C@@H]2CO)[C@H](O)[C@@H](O)[C@@H]1O (mixture of isomers) [Maltose, maltose] | 51 | 49 | 18 | 15 | 14 | 9 | 0 | 4 | 12 | 14 | 15 | 32 | 44 | 48 | 42 | 32 | 25 | 8 | 3 | 0
OC[C@H]1O[C@@H]2OC[C@H]3O[C@H](O[C@@H]4[C@@H](O)[C@@H](OC[C@H]5O[C@H](O[C@H]([C@H]2O)[C@@H]1O)[C@H](O)[C@@H](O)[C@@H]5O)O[C@H](CO)[C@H]4O)[C@H](O)[C@@H](O)[C@@H]3O [Cyclic tetrasaccharide, cyclic tetrasaccharide] | 51 | 50 | 29 | 16 | 13 | 12 | 1 | 6 | 10 | 15 | 16 | 30 | 43 | 49 | 41 | 30 | 17 | 11 | 0 | 0
